Article PMC12736451, “Autophagy-Targeting Stapled Peptide Utilizes Macropinocytosis for Cell Entry to Potentiate Anti-Proliferative Autosis in Small-Cell Lung Cancer” (Pharmaceutics, 2025)
Positions of bridges follow the written chain, without caps; N, C: chain ends. Non-standard residues stand in square brackets, D forms with d. Residues, ends and D or L forms follow the SMILES beside them. *: point of attachment. R8 = C=CCCCCCC[C@@](C)(N)C(=O)O; S5 = C=CCCC[C@](C)(N)C(=O)O; Cbz = O=C(OCc1ccccc1)*; CH2F = FC*

Key:
[1] = test system: SHP-77 cells; conditions: for rescue of Tat-SP4-induced cell death by cell death program inhibitor: 10 μM Tat-SP4, 24 h, trypan blue exclusion; for rescue of Tat-SP4-induced cell death by cell death program inhibitor / rescue of Tat-SP4-induced cell death by uptake pathway inhibitor: n = 3
Protocol: (§1) Cell viability was measured by a trypan blue exclusion assay following the standard protocol provided by the manufacturer. SHP-77 cells and H146 cells were plated into 96-well plates at a density of 2 × 10^4 cells/well. Upon cell attachment, cells were treated with the graded concentrations of Tat-SP4 for 24 h. The IC50 value was calculated from the curve fitted to concentration–response data sets. All experiments were repeated in triplicate, and the mean was calculated. For the 5-day growth curve, cells were seeded into a 24-well plate at 2.5 × 10^4 cells/well for SHP-77 and H146 cells. Cells were treated with 10 μM Tat-SP4. Cells were allowed to grow for up to 5 days post-treatment, and the viable cell number was checked every 24 hours with the trypan blue exclusion assay. For cell death rescue assays, SHP-77 cells were first plated overnight in 96-well plates. Tat-SP4 was added to the cells, together with inhibitors for apoptosis, ferroptosis, necroptosis, or autosis. After 24 h treatment, the cell viability was measured by the trypan blue exclusion assay.
Figure 3 Cell death induced by Tat-SP4 is rescued by an inhibitor of autosis but not by inhibitors for other cell death programs. (A) Flow cytometry analysis using Annexin V FITC-PI staining was conducted on SHP-77 cells after indicated hours of treatment with the Tat-SP4. […] (B) In the absence or presence of Z-VAD-FMK, SHP-77 cells treated with Tat-SP4 or cisplatin for 24 h. (C) SHP-77 cells were pretreated with ferroptosis inhibitor, ferrostatin-1, followed by 10 μM Tat-SP4 or 5 μM Erastin treatment for 24 h. […] (D) SHP-77 cells were treated with Tat-SP4 at 10 μM for 24 h, either in the presence or absence of necrostatin-1, respectively. […] (E) SHP-77 cells were pretreated with digoxin for 2 h, followed by the treatment of Tat-SP4 for 12 h. Cell viability was measured by trypan blue exclusion assay. Data are presented as mean ± SEM (n = 3). ** p < 0.01, **** p < 0.0001; unpaired t-test. TEXT PRINTED IN THE PICTURE: (A) Tat-SP4: Q1-UL 15.9% (10μM; 3h); Dead 30.5% (10μM; 3h); Live 48.8% (10μM; 3h); Apoptotic 4.8% (10μM; 3h); Q1-UL 51.4% (10μM; 6h); Dead 4.7% (10μM; 6h); Live 43.6% (10μM; 6h); Apoptotic 0.2% (10μM; 6h) DOUBTS OF THE COPYIST ABOUT THIS PICTURE: Tat-SP4 3h, Q1-UL 15.9%: very small print, 5 and 9 uncertain / Tat-SP4 3h, Dead 30.5%: very small print, 3 and 5 uncertain / Tat-SP4 3h, Live 48.8%: very small print, partly overlaid by the plot edge, both 8s uncertain / Tat-SP4 3h, Apoptotic 4.8%: very small print, 8 uncertain / Tat-SP4 6h, Q1-UL 51.4%: very small print, 5 uncertain / Tat-SP4 6h, Dead 4.7%: very small print, digits uncertain / Tat-SP4 6h, Live 43.6%: very small print, 3 and 6 uncertain / Tat-SP4 6h, Apoptotic 0.2%: very small print, digits uncertain
Figure 5 The cellular uptake process of Tat-SP4 is energy- and macropinocytosis-dependent. (A) Representative flow cytometry plot of SHP-77 cells stained with Rhod-SP4 at 10 μM at 4 °C, room temperature, and 37 °C for an hour, respectively. The fluorescence intensity of Rhod-SP4 increases with increasing temperature. (B) Mean fluorescence intensity of Rhod-SP4 from (A). The bar graph represents a single experiment without replicates. (C) Representative flow cytometry plot of SHP-77 cells stained with Rhod-SP4 at 10 μM at 37 °C for an hour, in the presence or absence of various inhibitors. AM, Amiloride; MβCD, Methyl-beta cyclodextrin. Cells were pretreated with different inhibitors for 30 min, followed by staining with Rhod-SP4 at 10 μM. (D) Mean fluorescence intensity of Rhod-SP4 from (C). The bar graph represents a single experiment without replicates. (E–G) Assess the effect of different inhibitors of cell-penetrating peptides uptake pathways on Tat-SP4-induced cell death. […] Data are presented as mean ± SEM (n = 3). * p < 0.05; unpaired t-test.

[2] = in vitro; conditions: human, Beas-2B cells (normal bronchial epithelial)
Protocol: as §1
(§2) (A) Trypan blue exclusion assay to assess the cytotoxicity IC50 of Tat-SP4 in SHP-77 and H146 cell lines. Cells were treated with Tat-SP4 at a series of concentrations for 24 h. The number of viable cells was determined manually using a hemocytometer and the trypan blue dye exclusion method.

[3] = test system: H146 cells; assay: Trypan blue exclusion cell viability assay, 24 h; assay type: cell-based; conditions: 24 h treatment, triplicate, mean, read-out: cytotoxicity IC50
Protocol: as §1, §2

[4] = test system: SHP-77 cells; assay: Trypan blue exclusion cell viability assay, 24 h; assay type: cell-based; conditions: 24 h treatment, triplicate, mean, read-out: cytotoxicity IC50
Protocol: as §1, §2

[5] = test system: SHP-77 xenograft; assay: SHP-77 xenograft model; assay type: in vivo; conditions: male nude mice, 40 mg/kg/day i.p., heart, liver, spleen, lung, kidney, stomach
Protocol: Animal experiments were carried out according to the guidelines of the Centralized Animal Facilities of the Hong Kong Polytechnic University. Male nude mice, 5–6 weeks in age, were purchased from the Centralized Animal Facilities of the Hong Kong Polytechnic University. Exponentially growing SHP-77 cells were harvested and resuspended in PBS with a concentration of 1 ×10^8 cells per ml. Mixed cell suspensions with Matrigel (Corning) in a 1:1 volume ratio with 5 × 10^5 SHP-77 cells were injected subcutaneously into the right-lower back of the mice. The tumor volume was calculated by the equation of Length × Width × Width/2. Mice were divided randomly into two groups (8 animals/group) when the tumor volume reached 50–60 mm^3. Tat-SP4 was administered intraperitoneally at 40 mg/kg every day, while PBS was administered to mice in the control group. The tumor volume was measured every other day. Treatments were continued until the tumor volume in the mice in the control group reached the maximum volume allowable according to the Centralized Animal Facilities of the Hong Kong Polytechnic University. At the end of the experiment, mice were sacrificed, and both tumors and vital organs were harvested for analysis. Tumor weights were measured after resection. […]
Figure 7 The anti-proliferative efficacy of Tat-SP4 in the SHP-77 xenograft model. […] The tumor volume was recorded every other day. […]

[6] = test system: SHP-77 cells; assay: Seahorse XF Mito Stress Test, oxygen consumption rate; assay type: cell-based; conditions: digoxin pretreatment followed by Tat-SP4
Protocol: Oxygen consumption in intact cells was assessed using an XFe24 Extracellular Flux Analyzer (Agilent, Santa Clara, CA, USA) following the manufacturer’s standard protocol. Briefly, one day prior to the experiment, an XF24 cell culture microplate was coated with 100 µg/mL poly-lysine and incubated in a CO2 incubator at 37 °C. On the same day, 1 mL of XF calibrant was added to each well of the utility plate to hydrate the sensor, and the XF24 sensor cartridge was incubated overnight in a non-CO2 incubator at 37 °C. On the day of the experiment, the coated XF24 cell culture microplate was washed with PBS and then allowed to air dry. Then, SHP-77 cells were seeded at a density of 1.5 × 10^5 cells per well in the coated XF24 cell culture microplate with the XF assay medium containing 1 mM sodium pyruvate, 2 mM glutamine, and 10 mM glucose and incubated for 1 h in a non-CO2 incubator at 37 °C.
Figure 4 Tat-SP4 impairs mitochondrial function and OXPHOS activity. […] Cells were stained with TMRM for 30 min and analyzed using flow cytometry. […] Fluorescence intensity is directly proportional to the amount of ROS in the cell. (C) OCR was measured using the Mito Stress Test with Agilent Seahorse Analyzer. […] (D) Quantification of basal maximum respiration changes respiration after Tat-SP4 treatment and in (A). **** p < 0.0001. […]

[7] = test system: SHP-77 cells; assay: Intracellular Ca2+ imaging with genetically encoded indicators; assay type: cell-based; conditions: 10 µM digoxin pretreatment 1 h, then 10 µM Tat-SP4
Protocol: Genetically encoded Ca^2+ indicators used in this study include mito-GCaMP5G, cyto-RCaMP1h, and G-CEPIA1er. SHP-77 cells were plated in 6-well plates to allow transfection. Cells were transfected with either mito-GCaMP5G, cyto-RCaMP1h, or G-CEPIA1er cDNA using Lipofectamine 2000 and incubated for 36 h. After transfection, cells were collected and evenly distributed into 24-well plates in HBSS buffer (Gibco) for imaging. Time-lapse fluorescence imaging was performed using an Olympus inverted epifluorescence microscope equipped with a ×20 objective and appropriate excitation/emission filter sets. Images were acquired every 3 s.
To monitor subcellular Ca^2+ dynamics, SHP-77 cells expressing mito-GCaMP5G, cyto-RCaMP1h, or G-CEPIA1er were imaged to capture Ca^2+ fluctuations in the mitochondria, cytosol, and endoplasmic reticulum, respectively. Tat-SP4 or other agonists were applied 60 s after the start of imaging. Fluorescence signals were quantified as ΔF/F0, where ΔF represents the change in fluorescence at each time point and F0 denotes the baseline fluorescence.
(A,B) SHP-77 cells were transfected with cyto-RCaMP1h (A) or mito-GCaAMP5G (B) for 36 h. […] SHP-77 cells were pretreated with 10µM digoxin for 1 h, followed by the stimulation of Tat-SP4.

CCOC(=O)c1ccc(NC2CCCCC2)c(N)c1 [Ferrostatin-1]
rescue of Tat-SP4-induced cell death by cell death program inhibitor [1]: did not rescue

CN1C(=O)C(Cc2c[nH]c3ccccc23)NC1=S (stereo not shown) [Necrostatin-1]
rescue of Tat-SP4-induced cell death by cell death program inhibitor [1]: did not rescue

CC(=O)N[C@@H](Cc1ccc(O)cc1)C(=O)NCC(=O)N[C@@H](CCCNC(=N)N)C(=O)N[C@@H](CCCCN)C(=O)N[C@@H](CCCCN)C(=O)N[C@@H](CCCNC(=N)N)C(=O)N[C@@H](CCCNC(=N)N)C(=O)N[C@@H](CCC(N)=O)C(=O)N[C@@H](CCCNC(=N)N)C(=O)N[C@@H](CCCNC(=N)N)C(=O)N[C@@H](CCCNC(=N)N)C(=O)N[C@@H](CCCNC(=N)N)C(=O)N[C@@H](CC(C)C)C(=O)N[C@@H](CO)C(=O)N[C@@H](CCC(=O)O)C(=O)N[C@@H](CC(C)C)C(=O)N[C@]1(C)CCCCCCC=CCCC[C@@](C)(C(=O)N[C@@H](C)C(N)=O)NC(=O)[C@H](CCCNC(=N)N)NC(=O)[C@H](CCC(N)=O)NC(=O)[C@H](CCCCN)NC(=O)[C@H](CCC(=O)O)NC(=O)[C@H](CCCNC(=N)N)NC(=O)[C@H](CC(=O)O)NC1=O [Tat-SP4] (Ac-YGRKKRRQRRRRLSEL[R8]DREKQR[S5]A-NH2; staple 17-24)
IC50 at 24 h [2]: 94.9 µM | IC50 [3]: 17.6 µM | IC50 [4]: 7.66 µM | body weight and gross morphology of major organs [5]: no abnormal changes

COC(=O)C[C@H](NC(=O)[C@H](C)NC(=O)[C@@H](NC(=O)OCc1ccccc1)C(C)C)C(=O)CF [Z-VAD-FMK] (Cbz-Val-Ala-Asp(OMe)-CH2F)
rescue of Tat-SP4-induced cell death by cell death program inhibitor [1]: had no effect | rescue of cisplatin-induced apoptotic cell death ([1]; cisplatin 24 h): rescued

N=C(N)NC(=O)c1nc(Cl)c(N)nc1N [amiloride, Amiloride]
rescue of Tat-SP4-induced cell death by uptake pathway inhibitor [1]: readily rescued cell death

C[C@H]1O[C@@H](O[C@H]2[C@@H](O)C[C@H](O[C@H]3[C@@H](O)C[C@H](O[C@H]4CC[C@@]5(C)[C@H](CC[C@@H]6[C@@H]5C[C@@H](O)[C@]5(C)[C@@H](C7=CC(=O)OC7)CC[C@]65O)C4)O[C@@H]3C)O[C@@H]2C)C[C@H](O)[C@@H]1O [digoxin, Digoxin]
basal and maximum OCR levels after Tat-SP4 with digoxin pretreatment [6]: comparable to those for untreated controls | effect on Ca2+ influx triggered by Tat-SP4 (cyto-RCaMP and mito-GCaMP5G) [7]: completely abolished

Heparin
rescue of Tat-SP4-induced cell death by uptake pathway inhibitor [1]: readily rescued cell death

Methyl-beta-cyclodextrin [MβCD]
rescue of Tat-SP4-induced cell death by uptake pathway inhibitor [1]: showed no such effect
